According to US9969701B2, “Salts and co-crystals of lesinurad” (CRYSTAL PHARMATECH, INC., priority 2013, dated 2018):
Converted amounts (≈) assume the structure as drawn.

Key:
[1] = Stability assessment under stress conditions (solid form by XRPD after storage); type: physicochemical; conditions: 14 days; for Stability under stress conditions: 25° C./60% RH and 40° C./75% RH; for Final form: XRPD
Protocol: Analytical Instrument: Panalytical Empyrean. The X-ray powder diffractogram was determined by mounting a sample of the crystalline material on a Si single crystal low-background holder and spreading out the sample into a thin layer with the aid of a microscope slide. The 2θ position was calibrated against Panalytical 640 Si powder standard. The sample irradiated with X-rays generated by a copper long-fine focus tube operated at 45 kV and 40 mA with a wavelength of Kα1=1.540589 angstroms and Kα2=1.544426 angstroms (Kα1/Kα2 intensity ratio is 0.50). The collimated X-ray source was passed through a programmed divergence slit set at 10 mm and the reflected radiation directed through a 5.5 mm anti-scattering slit. The sample was exposed for 16.3 seconds per 0.013° 2-theta increment (continuous scan mode) over the range 3 degrees to 40 degrees 2-theta in theta-theta mode. The running time was 3 minutes and 57 seconds. The instrument was equipped with an RTMS detector (X'Celerator). Control and data capture was accomplished by means of a Dell Optiplex 780 XP operating with data collector software.
The solid samples were analyzed by […].
The solid samples were analyzed by XRPD.

[2] = Hygroscopicity assessment by dynamic vapor sorption (DVS); type: physicochemical
Protocol: Dynamic Vapor Sorption (DVS) was measured via a SMS (Surface Measurement Systems) DVS Intrinsic. The relative humidity at 25° C. was calibrated against deliquescence point of LiCl, Mg(NO3)2 and KCl. Typical Parameters for DVS test are listed below.
Gas and flow rate: N2, 200 mL/min

[3] = Kinetic solubility in bio-relevant media (FaSSIF, FeSSIF), HPLC quantification; type: physicochemical; conditions: thermodynamic from solid, RT; for solubility at 1 h: time point 1 h; for solubility at 4 h: time point 4 h; for solubility at 24 h: time point 24 h
Protocol: 2. Add 3 mL of bio-relevant medium into each vial.
3. Cap the vials and keep all the suspension samples stirring at RT (room temperature) using a rolling incubator at a rate of 25 r/min.
4. Sample at 1 h, 4 h and 24 h respectively. About 0.6 mL aliquot of the suspension is transferred per time from solubility vial into a centrifuge filtration tube (pore size of 0.45 μm).
5. Centrifuge filtration tubes at a rate of 8500 rpm for 3 minutes at RT, collect 0.2 mL of supernatant for HPLC quantification determination and collect the rest of solution for pH measurement, and separate the solid for XRPD characterization.

[4] = test system: gout patients; conditions: gout patients who did not get benefit from allopurinol and febuxostat; lesinurad alone; cited from earlier work
[5] = FaSSIF (fasted state simulated intestinal fluid), FaSSIF
[6] = FeSSIF (fed state simulated intestinal fluid), FeSSIF

Row | SMILES | Stability under stress conditions [1] | Final form ([1]; stored under 25° C./60% RH) | Final form ([1]; stored under 40° C./75% RH) | Water uptake under 80% RH ([2]; 25° C., 80% RH) [%] | Water uptake under 95% RH ([2]; 25° C.) [%] | other results
1 | O=C(O)CSc1nnc(Br)n1-c1ccc(C2CC2)c2ccccc12.O=C(O)[C@@H]1CCCN1 | stable | co-crystal | co-crystal |  |  | 
2 | O=C([O-])CSc1nnc(Br)n1-c1ccc(C2CC2)c2ccccc12.O=C([O-])CSc1nnc(Br)n1-c1ccc(C2CC2)c2ccccc12.[Ca+2] [calcium salt Form A] | stable | calcium salt Form A | calcium salt Form A | 0.15 | 0.33 | Hygroscopicity ([2]; 80% RH, 25° C., European pharmacopoeia criteria): almost not hygroscopic; Deliquescence under high humidity conditions ([2]; high humidity): does not deliquesce
3 | O=C(O)CSc1nnc(Br)n1-c1ccc(C2CC2)c2ccccc12 [lesinurad freeacid, 2-((5-bromo-4-(4-cyclopropylnaphthalen-1-yl)-4H-1,2,4-triazol-3-yl)thio)acetic acid] |  |  |  |  |  | solubility at 1 h [3, 5]: 2890 µg/mL (≈ 7.15 mM); solubility at 4 h [3, 5]: 3580 µg/mL (≈ 8.86 mM); solubility at 24 h [3, 5]: 3000 µg/mL (≈ 7.42 mM); solubility at 1 h [3, 6]: 1510 µg/mL (≈ 3.72 mM); solubility at 4 h [3, 6]: 2140 µg/mL (≈ 5.29 mM); solubility at 24 h [3, 6]: 1930 µg/mL (≈ 4.78 mM); Serum levels of uric acid [4]: significantly reduced
4 | O=C([O-])CSc1nnc(Br)n1-c1ccc(C2CC2)c2ccccc12.[Na+] [sodium salt Form A, reference compound] |  |  |  | 25.11 | 32.13 | 
